In US10590086B2, “Pharmaceutical compound” (IOmet Pharma Ltd., priority 2014, dated 2020):

Assays:
TDO [1] = biological target: T1, TDO (Homo sapiens, UniProt P48775); assay: hTDO biochemical coupled assay; conditions: 330 μM L-tryptophan, read-out: hTDO biochemical assay pIC50 (converted)
IDO [2] = biological target: T2, IDO (Homo sapiens, UniProt P14902); assay: hIDO biochemical coupled assay; conditions: 45 μM L-tryptophan, read-out: hIDO biochemical assay pIC50 (converted)
TDO [3] = biological target: T1, TDO; assay: A172 kynurenine cell-based assay; parameters: This assay utilised cancer cells which expressed either TDO or IDO; endogenous in cells; host or cells: A172 (human glioblastoma); conditions: A172 human glioblastoma cells, 48 hours, read-out: A172 Kynurenine cell based assay pIC50 (converted)
Method in brief: (§1)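 Readout: […] of cell supernatant 5 min after Erhlich's reagent, reporting kynurenine. Cells: A172 (TDO) or SKOV3 + 500 ng/ml IFN-γ (IDO), 48 h, 37° C, ± compound. Medium: phenol red-free RPMI, 10% FCS, 2 mM L-glutamine, 500 μM L-tryptophan.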

IDO [4] = biological target: T2, IDO; assay: SKOV3 kynurenine cell-based assay (IDO induced by IFN-γ); parameters: IDO expression was induced in the SKOV3 cells by the addition of 500 ng/ml IFN-γ; endogenous in cells; host or cells: SKOV3 (human ovarian adenocarcinoma), induced with IFN-γ; conditions: 48 hours, read-out: SKOV3 Kynurenine cell based assay pIC50 (converted)
Method in brief: as §1

[5] = SKOV3 human ovarian adenocarcinoma cells, 500 ng/ml IFN-γ, 500 μM L-tryptophan
[6] = SKOV3 cells, IDO induced by 500 ng/ml IFN-γ

T2 sequence (P14902 whole entry): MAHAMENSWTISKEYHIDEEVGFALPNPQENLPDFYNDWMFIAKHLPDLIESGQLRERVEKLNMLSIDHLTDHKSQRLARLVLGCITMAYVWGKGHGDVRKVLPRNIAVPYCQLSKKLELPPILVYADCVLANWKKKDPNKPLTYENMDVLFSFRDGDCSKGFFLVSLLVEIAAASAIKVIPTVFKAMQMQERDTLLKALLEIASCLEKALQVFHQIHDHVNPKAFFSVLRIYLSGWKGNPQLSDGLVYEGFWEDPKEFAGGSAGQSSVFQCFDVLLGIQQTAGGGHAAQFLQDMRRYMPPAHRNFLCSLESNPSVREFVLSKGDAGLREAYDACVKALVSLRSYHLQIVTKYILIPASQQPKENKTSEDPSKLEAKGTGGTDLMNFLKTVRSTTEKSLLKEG
T1 sequence (P48775 whole entry): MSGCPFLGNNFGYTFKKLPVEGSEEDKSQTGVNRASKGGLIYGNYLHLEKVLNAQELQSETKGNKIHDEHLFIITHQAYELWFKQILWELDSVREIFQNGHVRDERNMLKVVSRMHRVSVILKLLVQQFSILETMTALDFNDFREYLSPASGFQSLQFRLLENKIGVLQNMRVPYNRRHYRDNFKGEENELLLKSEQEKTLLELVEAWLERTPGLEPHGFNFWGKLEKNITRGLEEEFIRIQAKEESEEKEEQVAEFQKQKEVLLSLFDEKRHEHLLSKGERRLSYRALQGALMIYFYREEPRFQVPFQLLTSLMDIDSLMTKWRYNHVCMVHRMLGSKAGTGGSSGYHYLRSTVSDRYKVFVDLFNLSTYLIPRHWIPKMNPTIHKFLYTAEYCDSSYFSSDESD

IC50 (TDO [1]; 17 minutes, room temperature) [µM]	IC50 (IDO [2]; 17 minutes, room temperature) [µM]	IC50 (TDO [3]; 500 μM L-tryptophan) [µM]	IC50 (IDO [4]; [5]) [µM]	IC50 (TDO [1]) [µM]	IC50 (IDO [2]) [µM]	IC50 (TDO [3]) [µM]	IC50 (IDO [4]; [6]) [µM]	Compound
< 3.16	> 100	< 3.16	> 100	–	–	–	–	CS(=O)(=O)N1CCOC2(CCN(c3cc(Cl)cc4[nH]ncc34)CC2)C1 [Compound 398]
< 3.16	3.24 to 31.6	< 3.16	3.24 to 31.6	–	–	–	–	NS(=O)(=O)N1CCC2(CCN(c3cc(Cl)cc4[nH]ncc34)CC2)C1 [Compound 361]
> 100	> 100	3.24 to 31.6	3.24 to 31.6	–	–	–	–	CS(=O)(=O)N1CCN(c2cc(Cl)cc3c(N)noc23)CC1 [Compound 302]
< 3.16	> 100	< 3.16	> 100	–	–	–	–	CN1C(=O)NC(C2CCN(c3cc(Cl)cc4[nH]ncc34)CC2)C1=O (centres unmarked) [Compound 444]
< 3.16	3.24 to 31.6	< 3.16	3.24 to 31.6	0.129	15.5	0.0245	5.62	CS(=O)(=O)c1ccc(-c2cc(Cl)cc3[nH]ncc23)cc1 [Compound 192, 6-chloro-4-(4-(methylsulfonyl)phenyl)-1H-indazole]
< 3.16	> 100	< 3.16	3.24 to 31.6	–	–	–	–	Clc1cc(N2CCN(c3nccs3)CC2)c2cn[nH]c2c1 [Compound 365]
3.24 to 31.6	> 100	3.24 to 31.6	> 100	–	–	–	–	CS(=O)(=O)N1CCN(c2cc(C(F)(F)F)cc3[nH]ncc23)C2CCCCC21 (single isomer, unassigned) [Compound 415]
32.4 to 100	> 100	3.24 to 31.6	3.24 to 31.6	–	–	–	–	CC(=O)N(C)c1cc(N2CCN(S(C)(=O)=O)C(C)(C)C2)c2cn[nH]c2c1 [Compound 311]
> 100	> 100	< 3.16	> 100	–	–	–	–	Clc1cc(-c2cnn(-c3ccccc3)c2)c2cn[nH]c2c1 [Compound 399]
< 3.16	< 3.16	< 3.16	< 3.16	–	–	–	–	CC1(C)CN(c2cc(Cl)cc3[nH]ncc23)CCN1S(N)(=O)=O [Compound 227]
< 3.16	> 100	< 3.16	3.24 to 31.6	–	–	–	–	O=C1CCCN1C1CCN(c2cc(Cl)cc3[nH]ncc23)CC1 [Compound 372]
3.24 to 31.6	> 100	3.24 to 31.6	3.24 to 31.6	–	–	–	–	CS(=O)(=O)c1ccc(Oc2cc(Cl)cc3[nH]ncc23)cc1 [Compound 368]
< 3.16	> 100	< 3.16	3.24 to 31.6	–	–	–	–	NC(=O)c1ccc(-c2cc(Cl)cc3[nH]ncc23)cc1 [Compound 256]
< 3.16	3.24 to 31.6	< 3.16	3.24 to 31.6	–	–	–	–	CN(C1CCN(c2cc(Cl)cc3[nH]ncc23)CC1(C)C)S(C)(=O)=O (centres unmarked) [Compound 449]
< 3.16	3.24 to 31.6	3.24 to 31.6	3.24 to 31.6	–	–	–	–	CNC(=O)C1CCN(c2cc(Cl)cc3[nH]ncc23)C1 (centres unmarked) [Compound 298]
3.24 to 31.6	> 100	< 3.16	> 100	3.63	> 257	0.832	> 10	CC(C)Cn1cc(-c2cc(Cl)cc3[nH]ncc23)cn1 [Compound 396, 6-chloro-4-(1-isobutyl-1H-pyrazol-4-yl)-1H-indazole]
> 100	> 100	3.24 to 31.6	> 100	–	–	–	–	CC(=O)Nc1cc(N2CCN(S(C)(=O)=O)C(C)(C)C2)c2cn[nH]c2c1 [Compound 312]
< 3.16	> 100	< 3.16	32.4 to 100	–	–	–	–	OC(c1ccccc1)c1cc(Cl)cc2[nH]ncc12 (centres unmarked) [Compound 271]
< 3.16	3.24 to 31.6	< 3.16	3.24 to 31.6	–	–	–	–	OC1(c2ccccc2)CCN(c2cc(Cl)cc3[nH]ncc23)CC1 [Compound 207]
< 3.16	< 3.16	< 3.16	3.24 to 31.6	–	–	–	–	Cc1cc(C2CCN(S(C)(=O)=O)CC2)c2cn[nH]c2c1 [Compound 30]
< 3.16	< 3.16	< 3.16	< 3.16	–	–	–	–	O=C1NC2(CCN(c3cc(Br)cc4[nH]ncc34)CC2)C(=O)N1Cc1ccccc1 [Compound 406]
< 3.16	3.24 to 31.6	< 3.16	> 100	–	–	–	–	CC1(C)CN(c2cc(Cl)cc3[nH]ncc23)CCN1CCNS(C)(=O)=O [Compound 420]

IC50 (TDO [1]; 17 minutes, room temperature) [µM]	IC50 (IDO [2]; 17 minutes, room temperature) [µM]	IC50 (TDO [3]; 500 μM L-tryptophan) [µM]	IC50 (IDO [4]; [5]) [µM]	IC50 (TDO [1]) [µM]	IC50 (IDO [2]) [µM]	IC50 (TDO [3]) [µM]	IC50 (IDO [4]; [6]) [µM]	Compound
< 3.16	3.24 to 31.6	< 3.16	> 100	–	–	–	–	Cn1ncc2c1CN(c1cc(Cl)cc3[nH]ncc13)CC2 [Compound 432]
< 3.16	3.24 to 31.6	< 3.16	3.24 to 31.6	–	–	–	–	CC1(C)CN(c2cccc3[nH]ncc23)CCN1S(C)(=O)=O [Compound 26]
< 3.16	32.4 to 100	< 3.16	3.24 to 31.6	–	–	–	–	CC(=O)N(C)C1CCN(c2cc(Cl)cc3[nH]ncc23)C1 (centres unmarked) [Compound 278]
< 3.16	> 100	3.24 to 31.6	3.24 to 31.6	–	–	–	–	CC(=O)NCC1CCCN(c2cc(Cl)cc3[nH]ncc23)C1 (centres unmarked) [Compound 283]
> 100	> 100	32.4 to 100	> 100	–	–	–	–	CN(c1cc(N2CCN(S(C)(=O)=O)C(C)(C)C2)c2cn[nH]c2c1)S(C)(=O)=O [Compound 310]
< 3.16	32.4 to 100	< 3.16	3.24 to 31.6	–	–	–	–	CC(=O)N1CCN(c2cccc3[nH]ncc23)CC1(C)C [Compound 25]
3.24 to 31.6	> 100	3.24 to 31.6	> 100	–	–	–	–	CS(=O)(=O)N1CCC(c2cccc3[nH]ncc23)CC1 [Compound 12]
< 3.16	> 100	< 3.16	32.4 to 100	–	–	–	–	CC(C)(O)c1cc(Cl)cc2[nH]ncc12 [Compound 259]
32.4 to 100	> 100	3.24 to 31.6	32.4 to 100	–	–	–	–	CC(=O)N1CCN(c2cccc3[nH]ncc23)CC1 [Compound 11]
< 3.16	< 3.16	< 3.16	< 3.16	–	–	–	–	O=C1NC2(CCN(c3cc(Cl)cc4[nH]ncc34)CC2)C(=O)N1CCO [Compound 330]
> 100	> 100	> 100	32.4 to 100	–	–	–	–	CC(=O)N1CCC(CNC(=O)c2cc(Cl)cc3[nH]ncc23)CC1 [Compound 295]
3.24 to 31.6	> 100	< 3.16	32.4 to 100	–	–	–	–	Clc1cc(N2CCN(c3ccncc3)CC2)c2cn[nH]c2c1 [Compound 374]
3.24 to 31.6	> 100	3.24 to 31.6	32.4 to 100	–	–	–	–	CC(C)S(=O)(=O)N1CCN(c2cccc3[nH]ncc23)CC1 [Compound 22]
3.24 to 31.6	> 100	3.24 to 31.6	3.24 to 31.6	–	–	–	–	CN1CNC(=O)C12CCN(c1cc(Cl)cc3[nH]ncc13)CC2 [Compound 380]
< 3.16	3.24 to 31.6	< 3.16	< 3.16	–	–	–	–	CS(=O)(=O)c1ccc(-c2cc(Cl)cc3[nH]ncc23)cc1Cl [Compound 264]
< 3.16	32.4 to 100	< 3.16	3.24 to 31.6	–	–	–	–	CNC(=O)NC1CCN(c2cc(Cl)cc3[nH]ncc23)CC1 [Compound 377]
< 3.16	3.24 to 31.6	< 3.16	3.24 to 31.6	–	–	–	–	O=C1NCC2(CCN(c3cc(Cl)cc4[nH]ncc34)CC2)N1 [Compound 267]
< 3.16	< 3.16	< 3.16	< 3.16	–	–	–	–	O=C1NC2(CCN(c3cc(Cl)cc4[nH]ncc34)CC2)C(=O)N1CC(F)(F)F [Compound 405]
3.24 to 31.6	> 100	< 3.16	> 100	–	–	–	–	CC1(C)CCC(O)(c2cc(Cl)cc3[nH]ncc23)CC1 [Compound 427]
< 3.16	> 100	< 3.16	> 100	–	–	–	–	O[C@H]1CCCC[C@@H]1c1cc(Cl)cc2[nH]ncc12 [Compound 418]
< 3.16	3.24 to 31.6	< 3.16	3.24 to 31.6	–	–	–	–	Cn1ncc2c1CCN(c1cc(Cl)cc3[nH]ncc13)C2 [Compound 369]
< 3.16	3.24 to 31.6	< 3.16	< 3.16	–	–	–	–	CS(=O)(=O)Nc1ccc(C2CCN(c3cc(Cl)cc4[nH]ncc34)CC2)cc1 [Compound 437]

Compound	IC50 (TDO [1]; 17 minutes, room temperature) [µM]	IC50 (IDO [2]; 17 minutes, room temperature) [µM]	IC50 (TDO [3]; 500 μM L-tryptophan) [µM]	IC50 (IDO [4]; [5]) [µM]	IC50 (TDO [1]) [µM]	IC50 (IDO [2]) [µM]	IC50 (TDO [3]) [µM]	IC50 (IDO [4]; [6]) [µM]
CS(=O)(=O)N1C2CCC1CN(c1cc(Cl)cc3[nH]ncc13)C2 [Compound 232]	< 3.16	3.24 to 31.6	< 3.16	3.24 to 31.6	–	–	–	–
